Test: SPF in vitro / UVA PF from UV transmittance through thin film on PMMA plates
Settings: for SPF in vitro mean / UV APF: 0.75 mg/cm^2; for SPF P / UV APF P: P (after irradiation, 800 J/m^2-eff)
Description: For determining the SPF in vitro value, the protection performance of compounds according to certain embodiments of the present technology, against erythemally-effective UV radiation, largely confined to the UVB (290-320 nm) and short-wavelength UVA (320-340) region, was calculated from the measured in vitro transmittance. The in vitro UVA PF, the UVA protection (320-400 nm), was calculated from the measured in vitro transmittance after irradiation. The Critical Wavelength Value was defined as the wavelength at which the integral of the spectral absorbance curve reached 90% of the integral over the UV spectrum from 290 to 400 nm. It has been settled that this value must be equal or over 370 nm so as to classify the product as broad-spectrum. The study consisted in a comparative assay of non-treated plates against plates treated with each of the compounds and was based on the evaluation of UV-transmittance through a thin film of sunscreen sample spread on a roughened substrate, before an after exposure to a controlled dose of UV radiation from a UV source. A Kontron 933 spectrophotometer equipped with a UV source, an integrating sphere and a monochromatic light able to deliver a flow of energy between 290 and 400 nm was used. The transmittance values were measured at 1 nm intervals. A 10-4 precision laboratory balance was used to control deposited product weight. The irradiation was provided by Sunset Atlas CPS+ with standard filter. Temperature regulation of the equipment was done in the range of 25-35° C. A pre-irradiation dose of 4 times 200 J/m^2-eff (800 J/m^2-eff) was delivered. The substrate was the material to which the sunscreen product was applied. Polymethylmethacrylate (PMMA) plates were used and were roughened on one side to a three-dimensional surface topography of 5 micrometers. Each compound was weighted and applied evenly to the PMMA plate with a 2-phase spreading to achieve a 0.75 mg/cm^2 weight/surface ratio. Spreading was performed with a light spreading move for approximately 30 seconds followed by spreading with greater pressure for approximately 30 seconds. The resulting sample was left to equilibrate for 15 minutes in the dark at room temperature to ensure a self-leveling of the formula. To account for lack of photostability, a pre-irradiation was necessary. The pre-irradiation dose was 4 minimal erythema dose (MEDs), equivalent to 800 J/m^2-eff. Five measurements of spectral irradiance transmitted for each wavelength through the PMMA plate covered with the sunscreen product were obtained after pre-irradiation of the sunscreen product [P1( ), P2( ), P3( ), P4( ) and P5( )]. For each compound, mean absorbance values were determined from at least three individual PMMA plates. To validate the accuracy of the results, a control product with an established SPF of 18-20, Lot 11T0313 was tested simultaneously with the compounds. SPF in vitro was calculated for each plate using the Colipa 2011 equation.

SMILES | SPF Change % [%] | ΔSPF | SPF in vitro mean | UV APF | SPF P | UV APF P
CCOC(=O)CNC1=C/C(=N/c2ccc(/N=N/c3ccc([N+](=O)[O-])cc3)cc2)CC(C)(C)C1 [Formula 35] | 7 | 2 | 21.53 | 17.35 | 17.94 | 14.64
COC(=O)C1CSC2=C(CC(C)(C)C/C2=N\c2ccc(OC)cc2)N1 (stereo not drawn) [Formula 43] | 4 | 1 | 20.84 | 4.02 | 18.59 | 3.94
CCOC(=O)CNC1=CC(Nc2ccc(OC)cc2)CC(C)(C)C1 (stereo not drawn) [Formula 72] | 18 | 4 | 23.61 | 2.85 | 21.12 | 2.74
COc1ccc(NC2C=C(NCC(=O)O)CC(C)(C)C2)cc1 (stereo not drawn) [Formula 73] | 61 | 12 | 32.31 | 16.05 | 27.60 | 13.08
